According to patent US20260227412A1, “USE OF IFN-I ACTIVITY AS A BIOMARKER FOR TLR INHIBITOR TREATMENT” (MERCK PATENT GMBH, priority 2022, published 2026):

What was measured:
[1] = test system: TLR7/8 activation in human PBMCs by patient-derived immune complexes; assay: IFN-α production in healthy donor PBMCs stimulated with patient-derived immune complexes (AlphaLISA); format: cell-based; conditions: PBMCs pre-treated with 1 μM enpatoran for 30 minutes, immune complex 24 hours
Source text: Blood sample collection: Blood samples were collected from subjects with lupus nephritis (LN), systemic lupus erythematosus (SLE), dermatomyositis (DM), polymyositis (PM), patients with inclusion body myositis (IBM) and healthy controls (HC). Blood plasma was isolated and frozen. Later, immunoglobulin G (IgG) was purified using protein A resin and the protein concentration determined.
Immune complex formation and peripheral blood mononuclear cell (PBMC) stimulation: To generate necrotic cell lysates, human embryonic kidney 293 cells were suspended at a concentration of 50 x10^6 cells/mL in phosphate buffered saline (PBS; Gibco, Grand Island, NY). The cells were frozen at −80° C. for 10 minutes followed by thawing at 37° C. Four freeze/thaw cycles were performed. The lysate was centrifuged at 400 g for 5 minutes to separate non-lysed cells and the supernatant was collected as necrotic cell lysate.
PBMCs were isolated from leukopacks collected from healthy donors (New York Blood Center, New York, NY) in sodium heparin tubes using Ficoll-Paque Plus (Cytiva Life Sciences, Uppsala, Sweeden). The cells were plated in 96-well U-bottom plates (4 x10^5 cells/well) in RPMI 1640 Medium (Gibco, Grand Island, NY) supplemented with 10% fetal bovine serum (FBS; Corning, Woodland, CA). […] The supernatants were collected and cytokine production was measured by AlphaLISA (PerkinElmer, Waltham, MA).

[2] = test system: patients hospitalized with COVID-19 pneumonia; assay: Exploratory phase II clinical study of enpatoran in patients hospitalized with COVID-19 pneumonia (NCT04448756), time to recovery; format: in vivo, human
Experimental: An exploratory phase II clinical study in patients hospitalized with COVID-19 pneumonia was conducted to inter alia assess whether the TLR inhibitor enpatoran improves time to recovery (NCT04448756).
Statistical testing was considered exploratory, and results are presented with no adjustment of type I error for multiplicity. Time to recovery was defined as time from Day 1 to first occurrence of WHO 9-point ordinal scale of ≤3 and was estimated via Kaplan-Meier (KM) analysis, presented with two-sided 95% confidence intervals (CI). The effect of each dose level compared with placebo was evaluated using a stratified log-rank test.
Blood was collected directly in PAXgene RNA tubes from patients at baseline prior to treatment for measurement of gene expression. IFN-I activity was measured by DxTerity Diagnostics (Rancho Dominguez, California, USA), using the IFN-1 test, a commercially available chemical ligation-dependent probe amplification and gene expression test with relative quantitative analysis by capillary electrophoresis. Sample testing and analysis was performed as previously described (Kim et al., J Mol Diagn. 2015 March;17 (2): 118-27). The IFN-1 test measures the expression levels of four IFN response genes (HERC5, IFI27, IFIT1 and RSAD2), i.e. the Dx-4 IFN-I signature, relative to the expression levels of three housekeeping normalizer genes (ACTB, GAPDH and TFRC). Normalized expression values of each respective response gene were calculated per the following function: Normalized ExpressionGene i=Log2(HeightGene i)−Mean (Log2 (Normaliser Gene Height)). The IFN-I signature score was calculated by averaging the normalized expression values of the four response genes. The cut-off between high IFN-I signature and low IFN-I signature scores (−0.5), was set to the mean±2 SDs (95th percentile) of IFN-I signature scores from 281 healthy human donors. This cut-off falls within the trough of the observed bimodal distribution of IFN-I signature scores for cohorts of SLE patients.
149 patients received either placebo (n=49), or enpatoran 50 mg (n=54)0r 100 mg (n=46) BID. Mean IFN-I signature scores (50 mg BID-0.84; 100 mg BID-0.74; placebo-0.91) and the proportion of patients with high IFN-I signature scores at baseline (50 mg BID 35%; 100 mg BID 43%; placebo 35%) were reasonably consistent across treatment groups, as reflected by Table 2: […]

[3] = subgroup with high IFN-I signature scores at baseline, 50 mg BID
[4] = subgroup with high IFN-I signature scores at baseline, 100 mg BID

SMILES: N#Cc1ccc(N2C[C@H](N)C[C@H](C(F)(F)F)C2)c2cccnc12 [enpatoran, 5-[(3R,5S)-3-amino-5-(trifluoromethyl)piperidin-1-yl]quinoline-8-carbonitrile]
- IFN-α production [1]: completely inhibited
- KM-estimated cumulative recovery rate up to Day 14 [2, 3]: 78.6%
- recovery rate at Day 28 [2, 3]: 73.3%
- KM-estimated cumulative recovery rate up to Day 14 [2, 4]: 88.2%
- recovery rate at Day 28 [2, 4]: 88.2%
- recovery rate at Day 28 ([2]; subgroup with low IFN-I signature scores at baseline, 50 mg BID): 100%
- recovery rate at Day 28 ([2]; subgroup with low IFN-I signature scores at baseline, 100 mg BID): 91.3%
- primary efficacy endpoint of the time to recovery from Day 1 through Day 28 ([2]; unstratified patient populations, enpatoran 50 mg or 100 mg BID vs placebo): not met
- recovery rate ([2]; unstratified, Day 1 through Day 28, 50 mg BID): 88.9%
- recovery rate ([2]; unstratified, Day 1 through Day 28, 100 mg BID): 91.3%
- median time to recovery ([2]; unstratified, range across groups (placebo, 50 mg BID, 100 mg BID)): 3.4 to 3.9 days
